We go through 32 compounds from patent publication US8178522B2, “Thiazoles” (Hoffmann-La Roche Inc., priority 2009, dated 2012).

This test addresses T1, GABA A α5 (α5β3γ2) (Homo sapiens, UniProt P18507+P31644).
T1 construct: expressed in transfected cells; host or cells: HEK293, transiently transfected; membrane preparation
Briefly: [3H]flumazenil competition binding, human GABA A α5 receptor. The note with it: human receptor α5β3γ2 transiently transfected in HEK293 cells; competition for [3H]flumazenil 0.5 nM; 1 hour at 4° C.; means of two determinations; read-out: hKi GABA A α5. As for the experimental part: Membrane Preparation and Binding Assay
The affinity of compounds at GABA A receptor subtypes was measured by competition for [3H]flumazenil (85 Ci/mmol; Roche) binding to HEK293 cells expressing rat (stably transfected) or human (transiently transfected) receptors of compositional α1β3γ2, α2β3γ2, α3β3γ2 and α5β3γ2.
Cell pellets were suspended in Krebs-tris buffer (4.8 mM KCl, 1.2 mM CaCl2, 1.2 mM MgCl2, 120 mM NaCl, 15 mM Tris; pH 7.5; binding assay buffer), homogenized by polytron for ca. 20 sec on ice and centrifuged for 60 min at 4° C. (50000 g; Sorvall, rotor: SM24=20000 rpm). The cell pellets were re-suspended in Krebs-tris buffer and homogenized by polytron for ca. 15 sec on ice. Protein was measured (Bradford method, Bio-Rad) and aliquots of 1 mL were prepared and stored at −80° C.
Assays were incubated to equilibrium for 1 hour at 4° C. and harvested onto GF/C uni-filters (Packard) by filtration using a Packard harvester and washing with ice-cold wash buffer (50 mM Tris; pH 7.5). After drying, filter-retained radioactivity was detected by liquid scintillation counting. Ki values were calculated using Excel-Fit (Microsoft) and are the means of two determinations.

With `Cc1nc(/C=C/c2conc2-c2ccc(F)cn2)sc1C(=O)NCC1CC1` [Example 92, 2-{(E)-2-[3-(5-Fluoro-pyridin-2-yl)-isoxazol-4-yl]-vinyl}-4-methyl-thiazole-5-carboxylic acid cyclopropylmethyl-amide], the Ki stood at 40.4 nM.

On to `COC(=O)c1cnc(CCc2c(-c3ccccn3)noc2C)s1` [Example 21, 2-[2-(5-Methyl-3-pyridin-2-yl-isoxazol-4-yl)-ethyl]-thiazole-5-carboxylic acid methyl ester], for which the Ki came to 40.2 nM.

Turning to `CNC(=O)c1cnc(/C=C/c2c(-c3ccc(F)cn3)noc2C)s1` [Example 88, 2-{(E)-2-[3-(5-Fluoro-pyridin-2-yl)-5-methyl-isoxazol-4-yl]-vinyl}-thiazole-5-carboxylic acid methylamide], the Ki was 6.2 nM.

Take `Cc1nc(CCc2c(-c3ccccn3)noc2C)sc1C(N)=O` [Example 18, 4-Methyl-2-[2-(5-methyl-3-pyridin-2-yl-isoxazol-4-yl)-ethyl]-thiazole-5-carboxylic acid amide]: the Ki was found to be 32.3 nM.

Consider `Cc1onc(-c2ccc(F)cn2)c1/C=C/c1ncc(C(=O)N2CCOCC2)s1` [Example 86, (2-{(E)-2-[3-(5-Fluoro-pyridin-2-yl)-5-methyl-isoxazol-4-yl]-vinyl}-thiazol-5-yl)-morpholin-4-yl-methanone], for which the Ki is 31.2 nM.

As to `Cc1onc(-c2ccc(F)cn2)c1/C=C/c1ncc(C(=O)N2CCS(=O)(=O)CC2)s1` [Example 83, (1,1-Dioxothiomorpholin-4-yl)-(2-{(E)-2-[3-(5-fluoro-pyridin-2-yl)-5-methyl-isoxazol-4-yl]-vinyl}-thiazol-5-yl)-methanone], the Ki came out at 27.4 nM.

As for `Cc1nc(/C=C/c2c(-c3ccc(F)cn3)noc2C)sc1C(=O)NC1CCOCC1` [Example 72, 2-{(E)-2-[3-(5-Fluoro-pyridin-2-yl)-5-methyl-isoxazol-4-yl]-vinyl}-4-methyl-thiazole-5-carboxylic acid (tetrahydro-pyran-4-yl)-amide], the Ki came to 0.6 nM.

Regarding `Cc1onc(-c2ccccc2)c1COc1ncc(C(=O)NC(C)CO)s1` (centres unmarked) [Example 129, 2-(5-Methyl-3-phenyl-isoxazol-4-ylmethoxy)-thiazole-5-carboxylic acid (2-hydroxy-1-methyl-ethyl)-amide], the Ki amounted to 4.2 nM.

As for `CCCCc1noc(C)c1/C=C/c1nc(C)c(C(=O)N2CC(OC)C2)s1` [Example 109, {2-[(E)-2-(3-Butyl-5-methyl-isoxazol-4-yl)-vinyl]-4-methyl-thiazol-5-yl}-(3-methoxy-azetidin-1-yl)-methanone], the Ki worked out at 33.2 nM.

Take `Cc1onc(-c2ccc(F)cn2)c1/C=C/c1ncc(C(=O)NC(C)C)s1` [Example 78, 2-{(E)-2-[3-(5-Fluoro-pyridin-2-yl)-5-methyl-isoxazol-4-yl}-vinyl]-thiazole-5-carboxylic acid isopropylamide]: the Ki was found to be 2.9 nM.

For the compound `Cc1onc(-c2ccccn2)c1CCc1ncc(C(=O)NC2CCS(=O)(=O)C2)s1` (centres unmarked) [Example 27, 2-[2-(5-Methyl-3-pyridin-2-yl-isoxazol-4-yl)-ethyl]-thiazole-5-carboxylic acid (1,1-dioxo-tetrahydrothiophen-3-yl)-amide], the Ki is 14 nM.

In the case of `CCCCc1noc(C)c1/C=C/c1nc(C)c(C(N)=O)s1` [Example 100, 2-[(E)-2-(3-Butyl-5-methyl-isoxazol-4-yl)-vinyl]-4-methyl-thiazole-5-carboxylic acid amide], the Ki was determined as 2 nM.

As for `CCCCc1noc(C)c1/C=C/c1nc(C)c(C(=O)NC2CCOC2)s1` (centres unmarked) [Example 94, 2-[(E)-2-(3-Butyl-5-methyl-isoxazol-4-yl)-vinyl]-4-methyl-thiazole-5-carboxylic acid (tetrahydro-furan-3-yl)-amide], the Ki worked out at 1.2 nM.

`Cc1onc(-c2ccccn2)c1CCc1ncc(C(=O)NC(C)C)s1` [Example 22, 2-[2-(5-Methyl-3-pyridin-2-yl-isoxazol-4-yl)-ethyl]-thiazole-5-carboxylic acid isopropylamide]: the Ki worked out at 18.1 nM.

With `Cc1onc(-c2ccccc2)c1/C=C/c1ncc(C(=O)NC2CCOC2)s1` (stereo in doubt) [Example 64, (S)-2-[(E)-2-(5-Methyl-3-phenyl-isoxazol-4-yl)-vinyl]-thiazole-5-carboxylic acid (tetra-hydro-furan-3-yl)-amide], the Ki turned out to be 1.7 nM.

In the case of `COC(=O)c1sc(CCc2c(-c3ccccn3)noc2C)nc1C` [Example 8, 4-Methyl-2-[2-(5-methyl-3-pyridin-2-yl-isoxazol-4-yl)-ethyl]-thiazole-5-carboxylic acid methyl ester], the Ki was found to be 20.3 nM.

With `CCCCc1noc(C)c1/C=C/c1nc(C)c(C(=O)NCC2CC2)s1` [Example 116, 2-[(E)-2-(3-Butyl-5-methyl-isoxazol-4-yl)-vinyl]-4-methyl-thiazole-5-carboxylic acid cyclopropylmethyl-amide], the Ki is 4.4 nM.

Consider `Cc1nc(CCc2c(-c3ccc(F)cn3)noc2C)sc1C(=O)NCC1CC1` [Example 34, 2-{2-[3-(5-Fluoro-pyridin-2-yl)-5-methyl-isoxazol-4-yl]-ethyl}-4-methyl-thiazole-5-carboxylic acid cyclopropylmethyl-amide], for which the Ki came to 16 nM.

As to `Cc1onc(-c2ccccc2)c1COc1ncc(C(=O)NC(C)(C)CO)s1` [Example 131, 2-(5-Methyl-3-phenyl-isoxazol-4-ylmethoxy)-thiazole-5-carboxylic acid (2-hydroxy-1,1-dimethyl-ethyl)-amide], the Ki is 12.7 nM.

Take `Cc1nc(CCc2c(-c3ccc(F)cn3)noc2C)sc1C(=O)NCCO` [Example 36, 2-{2-[3-(5-Fluoro-pyridin-2-yl)-5-methyl-isoxazol-4-yl]-ethyl}-4-methyl-thiazole-5-carboxylic acid (2-hydroxy-ethyl)-amide]: the Ki is 14 nM.

In the case of `CCCCc1noc(C)c1CCc1nc(C)c(C(=O)NC(C)C)s1` [Example 48, 2-[2-(3-Butyl-5-methyl-isoxazol-4-yl)-ethyl]-4-methyl-thiazole-5-carboxylic acid iso-propylamide], the Ki is 23.1 nM.

Turning to `Cc1nc(/C=C/c2c(-c3ccccc3)noc2C)sc1C(=O)NC1CCOC1` (centres unmarked) [Example 69, 4-Methyl-2-[(E)-2-(5-methyl-3-phenyl-isoxazol-4-yl)-vinyl]-thiazole-5-carboxylic acid (tetrahydro-furan-3-yl)-amide], the Ki was 0.3 nM.

Regarding `Cc1onc(-c2ccc(F)cn2)c1/C=C/c1ncc(C(=O)NCC2CC2)s1` [Example 82, 2-{(E)-2-[3-(5-Fluoro-pyridin-2-yl)-5-methyl-isoxazol-4-yl]-vinyl}-thiazole-5-carboxylic acid cyclopropylmethyl-amide], the Ki turned out to be 4.7 nM.

Consider `Cc1onc(-c2ccc(F)cn2)c1/C=C/c1ncc(C(=O)N2CCSCC2)s1` [Example 89, (2-{(E)-2-[3-(5-Fluoro-pyridin-2-yl)-5-methyl-isoxazol-4-yl]-vinyl}-thiazol-5-yl)-thiomorpholin-4-yl-methanone], for which the Ki is 22.8 nM.

For the compound `Cc1onc(-c2ccccc2)c1/C=C/c1ncc(C(=O)NCCO)s1` [Example 67, 2-[(E)-2-(5-Methyl-3-phenyl-isoxazol-4-yl)-vinyl]-thiazole-5-carboxylic acid (2-hydroxy-ethyl)-amide], the Ki stood at 2.8 nM.

For `Cc1onc(-c2ccccn2)c1CCc1ncc(C(=O)NCCO)s1` [Example 29, 2-[2-(5-Methyl-3-pyridin-2-yl-isoxazol-4-yl)-ethyl]-thiazole-5-carboxylic acid (2-hydroxy-ethyl)-amide], the Ki was 32.4 nM.

On to `Cc1onc(-c2ccccc2)c1CCc1ncc(C(=O)NC(C)C)s1` [Example 7, 2-[2-(5-Methyl-3-phenyl-isoxazol-4-yl)-ethyl]-thiazole-5-carboxylic acid isopropyl-amide], for which the Ki was 13.8 nM.

With `Cc1onc(-c2ccccn2)c1CCc1ncc(C(N)=O)s1` [Example 25, 2-[2-(5-Methyl-3-pyridin-2-yl-isoxazol-4-yl)-ethyl]-thiazole-5-carboxylic acid amide], the Ki was determined as 33.6 nM.

For the compound `CCCCc1noc(C)c1/C=C/c1nc(C)c(C(=O)NCC(F)(F)F)s1` [Example 119, 2-[(E)-2-(3-Butyl-5-methyl-isoxazol-4-yl)-vinyl]-4-methyl-thiazole-5-carboxylic acid (2,2,2-trifluoro-ethyl)-amide], the Ki stood at 2.4 nM.

As to `CCCCc1noc(C)c1CCc1nc(C)c(C(=O)NC2CCOCC2)s1` [Example 51, 2-[2-(3-Butyl-5-methyl-isoxazol-4-yl)-ethyl]-4-methyl-thiazole-5-carboxylic acid (tetra-hydro-pyran-4-yl)-amide], the Ki stood at 11.1 nM.

Regarding `CCCCc1noc(C)c1CCc1nc(C)c(C(=O)NCC(C)(C)O)s1` [Example 49, 2-[2-(3-Butyl-5-methyl-isoxazol-4-yl)-ethyl]-4-methyl-thiazole-5-carboxylic acid (2-hydroxy-2-methyl-propyl)-amide], the Ki was found to be 43.3 nM.

As to `CCOC(=O)c1cnc(OCc2c(-c3ccccc3)noc2C)s1` [Example 126, 2-(5-Methyl-3-phenyl-isoxazol-4-ylmethoxy)-thiazole-5-carboxylic acid ethyl ester], the Ki was 16.8 nM.
